Legend:
human ApoA-I promoter [1] = test: ApoA-I promoter induction in Caco-2 intestinal cells (pAI.474-Luc luciferase reporter); type: cell-based; conditions: Caco-2 cells, luciferase activity vs untreated/control, average values at 15 μM, 48 hours incubation
Experimental: Briefly, the promoter region of the gene encoding human ApoA-I was isolated and ligated upstream of the firefly luciferase gene to construct the reporter plasmid pAI.474-Luc. This reporter plasmid and pRSV-β-galactosidase (as a control for transfection efficiency) were co-transfected to Caco-2 cells. The Caco-2 cells were then incubated in a MEM selection media containing 20% fetal calf serum supplemented with G418 (final concentration: 0.5 mg/mL, Gibco) to give established strains that stably express from the reporter gene. […] Cells were starved for 24 hrs in MEM selection media containing 0.5% FBS. Then, a solution of a compound of the invention in DMSO or other appropriate solvent was added to the wells at a final concentration of 0 to 100 μM in MEM selection media containing 0.5% FBS.
Measures of luciferase activity were normalized to lysate protein concentrations, measured using Bradford Reagent (BioRad Protein Assay reagent Cat#500-0006). The luciferase activity of cells treated with various concentrations of test compounds was compared to that of control sample (i.e., solvent without any compound of the present invention added) and untreated samples.

human ApoA-I promoter [2] = test: ApoA-I promoter induction in HepG2 liver cells (pAI.474-Luc luciferase reporter); type: cell-based; conditions: luciferase activity vs untreated/control, average values at 15 μM, 48 hours incubation
Experimental: This study determined whether compounds of the invention have an effect on ApoA-I promoter activity expression in HepG2 cells, a liver cell line. Cells were grown under conditions recommended by the ATCC and summarized by Wong.
The promoter region of the gene encoding human ApoA-I was isolated and ligated upstream the structure gene of firefly luciferase to construct a reporter plasmid (pAI.474-Luc). The reporter plasmid, along with pRSV-β-galactosidase (as a control for transfection efficiency) were co-transfected into HepG2 cells. The cells were then incubated in an MEM selection medium containing 20% fetal calf serum supplemented with G418 (final concentration: 0.5 mg/mL, Gibco) to give established strains that stably express from the reporter gene. The strains were seeded to a 6-well culture plates and incubated for 48 hours at 37° C. under 5% carbon dioxide. Cells were starved for 24 hrs in MEM selection media containing 0.5% FBS. Then, a solution of the compounds of the invention in DMSO (or other appropriate solvent) was added to the wells at a final concentration of 0 to 100 μM in MEM selection media containing 0.5% FBS.
After further incubation for 48 hours, the cells were harvested and lysed using Reporter Lysis Buffer (PROMEGA E3971), and 50 μL of luciferase assay reagent (PROMEGA E4550 Luciferase Reporter 1000 assay system) were added to measure luciferase activity with a luminometer (Fluoroskan Ascent FL from Thermo electron Corporation). Measures of luciferase activity were normalized to lysate protein concentrations, measured using Bradford Reagent (Biorad Protein Assay reagent Cat#500-0006).

[3] = Caco-2 permeability (in vitro Caco-2 intestinal transport model); type: in vitro ADME, human; conditions: human, Caco-2
Source text: (§1) The Caco-2 cell drug transport model is widely used for screening compounds in drug discovery to assess intestinal transport and predict absorption rates. […] Sun et al., “In vitro testing of drug absorption for drug ‘developability’ assessment: forming an interface between in vitro preclinical data and clinical outcome,” Curr. Opin. Drug Discov. Devel.

Caco-2 cells = test: as above; type: in vitro ADME, human; conditions: in vitro Caco-2 intestinal transport model
Source text: as §1

human ApoA-I promoter [4] = conditions: Caco-2 cells, reported by Wong; cited from earlier work

With `Nc1cc(O)ccc1/C=C/c1ccc(O)cc1` [Example 10, 3-Amino-4-[(E)-2-(4-hydroxy-phenyl)vinyl]phenol] the “ApoA-I Promoter Induction” value (human ApoA-I promoter [1]) was “increased” and the melting point was 229 to 232 °C.

For `Oc1ccc(/C=C/c2ccc(O)nc2)cc1` [Example 2, 5-[(E)-2-(4-Hydroxy-phenyl)-vinyl]-pyridin-2-ol], the “ApoA-I Promoter Induction” value (human ApoA-I promoter [1]) was “increased”.

For `COc1cc(O)ccc1/C=C/c1ccc(O)cc1` [Example 3, 4-[(E)-2-(4-Hydroxy-phenyl)-vinyl]-3-methoxy-phenol], the “ApoA-I Promoter Induction” value (human ApoA-I promoter [1]) was “increased”, the “ApoA-I Promoter Induction” value (human ApoA-I promoter [2]) was “increased” and the melting point was 192 to 194 °C.

In the case of `COc1ccc(/C=C/C(=O)c2ccccc2)cc1` [4-Methoxy-chalcone], the “ApoA-I Promoter Induction” value (human ApoA-I promoter [1]) is reported as “increased”.

Compound `Oc1ccc(/N=N/c2ccc(O)cc2)cc1` [Example 21, 4-(4-Hydroxy-phenyl)-azophenol] has a Papp [3] of 8.73 ×10⁻⁶ cm/s.

For `Oc1ccc(/C=C/c2cc(O)cc(O)c2)cc1` [Example 1, Resveratrol], the “ApoA-I Promoter Induction” value (human ApoA-I promoter [1]) was “increased” and the “ApoA-I Promoter Induction” value (human ApoA-I promoter [2]) was “increased”.

In the case of `CC(=O)Nc1cc(O)ccc1/C=C/c1ccc(O)cc1` [Example 11, N-{5-Hydroxy-2-[(E)-2-(4-hydroxyphenyl)vinyl]phenyl}-acetamide], the melting point is reported as 227 to 229 °C.

In the case of `CN(C)C(=O)c1cc(O)ccc1/C=C/c1ccc(O)cc1` [Example 12, 5-Hydroxy-2-[2-(4-hydroxyphenyl)vinyl]-N,N-dimethyl-benzamide], the “ApoA-I Promoter Induction” value (human ApoA-I promoter [1]) is reported as “increased” and the melting point is reported as 183.5 to 187.7 °C.

With `NC(=O)c1cc(/C=C/c2ccc(O)cc2)ccc1O` [Example 8, (E)-2-Hydroxy-5-(4-hydroxystyryl)benzamide] the “ApoA-I Promoter Induction” value (human ApoA-I promoter [1]) was “increased” and the melting point was 272 to 274 °C.

With `O=C(O)c1cc(/C=C/c2ccc(O)cc2)ccc1O` [Example 5, 2-Hydroxy-5-[(E)-2-(4-hydroxyphenyl)vinyl]benzoic acid] the “ApoA-I Promoter Induction” value (human ApoA-I promoter [1]) was “no” and the melting point was 241 to 243 °C.

`O=C(Oc1ccccn1)c1ccc(O)cc1` [Example 20, 4-Hydroxy-benzoic acid pyridin-2-yl ester] gave a Papp [3] of 2 ×10⁻⁶ cm/s.

In the case of `CCCO` [Propanol, reference compound], the “% Transported Paap” value (Caco-2 cells) is reported as 1.01e-05 cm/s.

In the case of `COc1ccc(C(=O)/C=C/c2ccc(O)cc2O)cc1` [2,4-Dihydroxy-4′-methoxy-chalcone], the “ApoA-I Promoter Induction” value (human ApoA-I promoter [1]) is reported as “increased”.

With `CS(=O)(=O)c1cc(O)ccc1/C=C/c1ccc(O)cc1` [Example 9, 4-[(E)-2-(4-Hydroxyphenyl)vinyl]-3-methanesulfonylphenol] the melting point was 244 to 245 °C.

For `OCc1cc(O)ccc1/C=C/c1ccc(O)cc1` [Example 4, 3-Hydroxymethyl-4-[(E)-2-(4-hydroxy-phenyl)-vinyl]-phenol], the Papp [3] was 1.79 ×10⁻⁶ cm/s, the “ApoA-I Promoter Induction” value (human ApoA-I promoter [1]) was “increased” and the melting point was 223 to 225 °C.

For `Oc1ccc(/C=C/c2ccc(O)cc2)cc1` [4,4′-dihydroxy-stilbene], the “ApoA-I Promoter Induction” value (human ApoA-I promoter [1]) was “increased” and the “ApoA-I Promoter Induction” value (human ApoA-I promoter [2]) was “increased”.

With `O=[N+]([O-])c1cc(O)ccc1/C=C/c1ccc(O)cc1` [Example 6, 3-Nitro-4-[(E)-2-(4-hydroxyphenyl)-vinyl]phenol] the Papp [3] was 1.95 ×10⁻⁶ cm/s, the “ApoA-I Promoter Induction” value (human ApoA-I promoter [1]) was “increased” and the “ApoA-I Promoter Induction” value (human ApoA-I promoter [2]) was “increased”. The melting point was 237 to 240 °C.

With `O=C(/C=C/c1ccc(O)cc1)c1ccccc1` [4-Hydroxy-chalcone] the “ApoA-I Promoter Induction” value (human ApoA-I promoter [1]) was “increased”.

With `O=C(/C=C/c1ccc(O)cc1)c1ccc(O)cc1O` [4,2′,4′-Trihydroxy-chalcone] the “ApoA-I Promoter Induction” value (human ApoA-I promoter [1]) was “increased”.

In the case of `Oc1ccc(CCc2ccc(O)cc2)cc1` [Example 17, 4-[4-Hydroxy-phenethyl]-phenol], the “ApoA-I Promoter Induction” value (human ApoA-I promoter [1]) is reported as “increased” and the “ApoA-I Promoter Induction” value (human ApoA-I promoter [2]) is reported as “increased”.

For `O=S(=O)(Nc1ccc(O)cc1)c1ccc(O)cc1` [Example 19, 4-Hydroxy-N-(4-hydroxyphenyl)-benzenesulfonamide], the “ApoA-I Promoter Induction” value (human ApoA-I promoter [1]) was “increased”.

In the case of `Oc1ccc(/C=C/c2cc(O)cc(O)c2)cc1` [resveratrol], the “stimulation of ApoA-I promoter activity at 4, 8, 16 and 24 hours following administration” value (human ApoA-I promoter [4]) is listed as “significant stimulation”.

For `CCOC(=O)c1cc(/C=C/c2ccc(O)cc2)ccc1O` [Example 7, (E)-Ethyl 2-hydroxy-5-(4-hydroxystyryl) benzoate], the “ApoA-I Promoter Induction” value (human ApoA-I promoter [1]) was “increased” and the melting point was 269 to 271 °C.
